Each block holds one substance with its values, some of them ahead of it. Ends that are not written are not given here.
Legend:
Jurkat cells [1] = test: Jurkat cell adhesion to surfaces coated with peptide-rsa conjugates; type: cell-based, human
Experimental: ^51Cr-labeled Jurkat cells ([…]) were incubated on surfaces coated with varying concentrations of peptide-rsa conjugates starting at 50 ug/ml (w/v) fragment or peptide (based on peptide not peptide-conjugate weight). […] (No adhesion=no measurable adhesion above negative controls.)
Adhesion of various hematopoetic cell lines to CS-1 (open bars; FIG. 12) or LDV minimal peptide-coated surfaces (cross-hatched bars; FIG. 12) was tested as follows: Jurkat (T lymphoblastoid), A375 (melanoma), U937 (monocytic), Ramos (B lymphoblastoid), and ST-1 (EBV transformed B lymphoblastoid) cells were allowed to adhere to CS-1-rsa or LDVPST-rsa (5 ug/ml peptide) coated surfaces for 30 min at 37° C. At the end of this time the non-adherent cells were washed off and the adherent cells were solubilized in NaOH/SDS and quantitated in a gamma counter. The results are expressed as bound counts per minute.

[2] = molecular target: integrin β1 subunit (human) (UniProt P05556); test: cell-based or functional assay
[3] = system: T lymphocytes (Jurkat or Molt 4 cells); test: T lymphocyte adhesion to plasma fibronectin, tryptic fragments and CS peptides; type: cell-based, human
Experimental: Antibodies that would alter cell adhesion to purified plasma fibronectin, tryptic fragments and CS peptides were identified as previously described (Wayner and Carter, 1987). […] The plates were blocked with PBS supplemented with 10 mg/ml heat denatured BSA (HBSA). T lymphocyte or HT1080 cells were labeled with Na2 ^51CrO4 (50 μlCi/ml for 2–4 hr), washed, and 5×10^4 HT1080 or cultured T cells or […] were incubated with hybridoma culture supernatants (1:2 dilution in PBS supplemented with 1 mg/ml heat denatured BSA) or control myeloma cell culture supernatant for 15 minutes at room temperature. The cells were allowed to adhere to the protein-coated surfaces in the presence of the hybridoma supernatants for 15–30 minutes (HT1080) or 2–4 hours (lymphocytes) at 37° C. Non-adherent cells were removed by washing with PBS, and the adherent cells were dissolved in SDS/NaOH and bound ^51Cr-cpm were quantitated in a gamma counter.
Human plasma fibronectin was a generous gift from Drs. Horowitz and R. Schulman (New York Blood Center, N.Y.). […] Two overlapping peptides spanning the initial 48 residues of the IIICS region of human fibronectin (CS-1 and CS-2) were synthesized and coupled to rabbit IgG as described (Humphries et al., 1986, and Humphries et al., 1987, J. Biol. Chem. 262:6886–6892).

Jurkat cells [4] = test: Peptide inhibition of Jurkat cell adhesion to plasma fibronectin (50% inhibition point); type: cell-based, human; settings: read-out: Molar Concentration (mM) required for 50% inhibition of Jurkat cell adhesion to plasma fibronectin; fibronectin 5 ug/ml; 30 min
Experimental: For peptide inhibition studies, ^51Cr-labeled test cells were pre-incubated with CS-1 derived peptides at various concentrations for 15 min at room temperature. The test cells were then allowed to attach to fibronectin-coated surfaces in the presence of exogenous test peptides for 30–60 min. The assay then proceeded as described above.
For these experiments in Table XIII ^51Cr-labeled Jurkat cells (10^5/well) were incubated in the presence of the varying concentrations (starting at 2 mg/ml) of the indicated peptides for 15 min. The Jurkat cells were then allowed to adhere to plasma fibronectin-coated surfaces (5 ug/ml) in the presence of the peptides for 30 min. Adhesion to fibronectin was graphically depicted as cpm bound to the fibronectin surface (Y axis), plotted as a function of molar peptide concentration (X axis).

[5] = system: LAD (B) lymphocyte adhesion to HUVE monolayers; test: Endothelial cell adhesion assay, LAD cells on HUVE monolayers; type: cell-based, human; settings: for Adhesion (cpm) +IL-1β: IL-1β activated HUVE; for Adhesion (cpm) Basal: basal HUVE, no peptide 44860
Experimental: (§1) HUVEs were incubated with IL-1 β (1 ng/ml) or in some experiments with TNF α (10 ng/ml) for 6–24 hours. At the end of this incubation the HUVE monolayers were washed and used in the adhesion assay.
(§2) Human umbilical vein endothelial cells (HUVEs) were cultured in 48 well plates as described (supra). To measure adherence of lymphocytes to HUVE monolayer cultures, lymphocytes were labeled with Na2 ^51CrO4 (50 μCi/ml) for 2–4 hours), washed, and then 10^5 lymphocytes were incubated with HUVE monolayers in the presence or absence of inhibitory antibodies or CS-1 derived peptides. The lymphocytes were allowed to adhere for 30 minutes at 37°. Non-adherent cells were subsequently removed by washing with PBS, and the adherent cells were dissolved in SDS/NaOH. Bound ^51Cr-cpm were quantitated in a gamma counter. In some experiments, endothelial cells were activated prior to the adhesion assay by incubating with IL-1 β (1 ng/ml) or […] (10 ng/ml) for 6–24 hours in defined CS-100 media (Cell Systems, Seattle, Wash.).

[6] = system: Ramos (B) lymphocyte adhesion to HUVE monolayers; test: Endothelial cell adhesion assay, Ramos cells on HUVE monolayers; type: cell-based, human; settings: for Adhesion (cpm) +IL-1β: IL-1β activated HUVE; for Adhesion (cpm) Basal: basal HUVE, no peptide 2724
Experimental: as §1, §2

[7] = system: Jurkat (T) lymphocyte adhesion to HUVE monolayers; test: Endothelial cell adhesion assay, Jurkat cells on HUVE monolayers; type: cell-based, human; settings: for Adhesion (cpm) +IL-1β: IL-1β activated HUVE; for Adhesion (cpm) Basal: basal HUVE, no peptide 161092
Experimental: as §1, §2

Sequence of integrin β1 subunit (human) (P05556 21-798): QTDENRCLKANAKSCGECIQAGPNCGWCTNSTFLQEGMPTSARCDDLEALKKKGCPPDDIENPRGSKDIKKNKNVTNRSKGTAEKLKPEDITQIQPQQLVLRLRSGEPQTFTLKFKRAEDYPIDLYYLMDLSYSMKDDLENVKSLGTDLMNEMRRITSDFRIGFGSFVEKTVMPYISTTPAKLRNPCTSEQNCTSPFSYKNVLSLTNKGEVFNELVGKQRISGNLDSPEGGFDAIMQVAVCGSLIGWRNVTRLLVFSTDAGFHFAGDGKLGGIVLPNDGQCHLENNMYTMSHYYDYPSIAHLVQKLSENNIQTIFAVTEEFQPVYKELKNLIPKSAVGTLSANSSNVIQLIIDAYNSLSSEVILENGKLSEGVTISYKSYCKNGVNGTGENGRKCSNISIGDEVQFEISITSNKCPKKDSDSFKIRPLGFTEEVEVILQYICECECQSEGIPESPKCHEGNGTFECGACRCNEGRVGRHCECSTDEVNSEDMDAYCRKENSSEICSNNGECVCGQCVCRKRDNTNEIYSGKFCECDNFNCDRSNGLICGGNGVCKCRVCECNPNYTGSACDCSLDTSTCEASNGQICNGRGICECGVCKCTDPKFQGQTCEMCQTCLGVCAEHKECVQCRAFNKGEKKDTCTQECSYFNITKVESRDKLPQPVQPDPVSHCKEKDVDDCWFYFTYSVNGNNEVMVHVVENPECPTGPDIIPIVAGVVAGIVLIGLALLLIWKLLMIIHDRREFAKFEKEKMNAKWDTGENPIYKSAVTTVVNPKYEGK

Substance: rsa-A13: A13 peptide conjugated to rabbit serum albumin (DELPQLVTLPHPN; also: conjugated to rabbit serum albumin)
Molar Concentration (nM) required for 50% adhesion of Jurkat cells (Jurkat cells [1]; peptide-rsa conjugate coated surfaces, 50% of total input cpm): No Adhesion

Adhesion (cpm), Jurkat (T) on HUVE monolayers, +IL-1β; SP2 control 372159 [2]: 230000 cpm
Adhesion (cpm), Jurkat (T) on HUVE monolayers, Basal; SP2 control 83924 [2]: 36900 cpm
Adhesion (cpm), LAD (B) on HUVE monolayers, +IL-1β; SP2 control 104672 [2]: 52600 cpm
Adhesion (cpm), LAD (B) on HUVE monolayers, Basal; SP2 control 19542 [2]: 6360 cpm
Adhesion (cpm), Ramos (B) on HUVE monolayers, +IL-1β; SP2 control 12157 [2]: 3150 cpm
Adhesion (cpm), Ramos (B) on HUVE monolayers, Basal; SP2 control 972 [2]: 604 cpm
Substance: monoclonal antibody P4C10

Substance: CS-2 (rabbit IgG conjugate): CS-2 peptide of the IIICS region coupled to rabbit IgG (PSTVQKTPFVTHPGYDTGNGIQLPGT; also: coupled to rabbit IgG, site not given here)
T lymphocyte attachment to peptide (rabbit IgG conjugate)-coated plastic surfaces [3]: do not attach

Substance: VPST-rsa: VPST conjugated to rabbit serum albumin (also: conjugated to rabbit serum albumin)
Induction of stable cell adhesion (Jurkat cells [1]; FIGS. 13-15, Jurkat, U937 and HUT 78 cells): relatively inactive in inducing stable cell adhesion

concentration of 8A2 able to stimulate increased avidity of a low avidity α4β1 receptor complex for fibronectin, CS-1, or LDV minimal peptides [2]: 0.1 µg/mL
Substance: monoclonal antibody 8A2

IC50 (Jurkat cells [4]): > 1 mM
Substance: DELPQLVTLPHPN [Peptide A13, N-terminal peptide of CS-1]

IC50 (Jurkat cells [4]): > 2.5 mM
Substance: VPST [Peptide 350]
Adhesion (cpm) +IL-1β ([5]; Table XI, no peptide 71408): 98860 cpm
Adhesion (cpm) +IL-1β ([5]; peptides, Table X): 42728 cpm
Adhesion (cpm) Basal ([5]; Table XI): 38176 cpm
Adhesion (cpm) +IL-1β ([6]; Table XI, no peptide 12936): 15320 cpm
Adhesion (cpm) +IL-1β ([6]; peptides, Table X): 4568 cpm
Adhesion (cpm) Basal ([6]; Table XI): 4168 cpm
Adhesion (cpm) +IL-1β ([7]; Table XI, no peptide 314848): 322208 cpm
Adhesion (cpm) +IL-1β ([7]; peptides, Table X): 127544 cpm
Adhesion (cpm) Basal ([7]; Table XI): 203716 cpm

IC50 (Jurkat cells [4]): > 2.7 mM
Substance: leu-asp-val (Leu-Asp-Val; not fully specified; printed as leu-asp-val) [LDV]

IC50 (Jurkat cells [4]): > 1.6 mM
Substance: LDVPST [Peptide 351]
Adhesion (cpm) +IL-1β ([5]; Table XI, no peptide 71408): 92792 cpm
Adhesion (cpm) Basal ([5]; Table XI): 39700 cpm
Adhesion (cpm) +IL-1β ([6]; Table XI, no peptide 12936): 15092 cpm
Adhesion (cpm) Basal ([6]; Table XI): 3532 cpm
Adhesion (cpm) +IL-1β ([7]; Table XI, no peptide 314848): 326260 cpm
Adhesion (cpm) Basal ([7]; Table XI): 166948 cpm

— patent US7238668B1, “Inhibition of lymphocyte adherence with CS-1-peptides and fragments thereof” (Fred Hutchinson Cancer Research Center, priority 1989, dated 2007)
